Data: patent publication US7118895B2, “Process for producing aglycon by using diglycosidase and flavor-improved food containing the aglycon and converting agent to be used in the process” (Amano Enzyme Inc., priority 2000, dated 2006)

Test system: Crude diglycosidase
Experiment: Examination of pH in the conversion into isoflavone aglycons by diglycosidase using soybean materials
Assay type: biochemical, Penicillium multicolor IAM7153
Parameters: Decomposition efficiency of genistin family in soymilk / Decomposition efficiency of genistin family in defatted soybean / Decomposition efficiency of daidzin family in defatted soybean: concentration or dose not given beside the values
Conditions: for Decomposition efficiency of daidzin family in roasted soy flour: 55° C.
In short: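 Each soybean material (50 mg) is suspended and set to a pH between 2 and 11. Crude diglycosidase, adjusted to 1.88 AU/mL in enzyme solution of the same pH, is added, and the mixture is incubated at 55° C. Ethanol is added at 0, 1, 3 and 6 h, then supernatants go to HPLC.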

[1] = pH6.6, heat treatment of enzyme: no, reaction time 0 h
[2] = pH6.6, heat treatment of enzyme: no, reaction time 1 h
[3] = pH6.6, heat treatment of enzyme: no, reaction time 3 h
[4] = pH6.6, heat treatment of enzyme: no, reaction time 6 h
[5] = pH6.6, heat treatment of enzyme: yes, reaction time 6 h

With `O=c1c(-c2ccc(O)cc2)coc2cc(O[C@@H]3O[C@H](CO)[C@@H](O)[C@H](O)[C@H]3O)ccc12` [daidzin] the “Decomposition efficiency of daidzin family in roasted soy flour” value (pH5, heat treatment of enzyme no, reaction time 0 h) was 48.7, the “Decomposition efficiency of daidzin family in roasted soy flour” value (pH5, heat treatment of enzyme no, reaction time 1 h) was “not detected” and the “Decomposition efficiency of daidzin family in roasted soy flour” value (pH5, heat treatment of enzyme no, reaction time 3 h) was “not detected”. For the same compound, the “Decomposition efficiency of daidzin family in roasted soy flour” value (pH5, heat treatment of enzyme no, reaction time 6 h) was “not detected”, the “Decomposition efficiency of daidzin family in roasted soy flour” value (pH5, heat treatment of enzyme yes, reaction time 6 h) was 50.6 and the “Decomposition efficiency of daidzin family in concentrated soybean protein” value (pH5.1, heat treatment of enzyme: no, reaction time 0 h) was 52.5%. For the same compound, the “Decomposition efficiency of daidzin family in concentrated soybean protein” value (pH5.1, heat treatment of enzyme: no, reaction time 1 h) was “not detected”, the “Decomposition efficiency of daidzin family in concentrated soybean protein” value (pH5.1, heat treatment of enzyme: no, reaction time 3 h) was “not detected” and the “Decomposition efficiency of daidzin family in concentrated soybean protein” value (pH5.1, heat treatment of enzyme: no, reaction time 6 h) was “not detected”. The “Decomposition efficiency of daidzin family in concentrated soybean protein” value (pH5.1, heat treatment of enzyme: yes, reaction time 6 h) was 53.4%, the “Decomposition efficiency of daidzin family in defatted soybean” value (pH5.4, heat treatment of enzyme: no, reaction time 0 h) was 43.5% and the “Decomposition efficiency of daidzin family in defatted soybean” value (pH5.4, heat treatment of enzyme: no, reaction time 1 h) was “not detected”. For the same compound, the “Decomposition efficiency of daidzin family in defatted soybean” value (pH5.4, heat treatment of enzyme: no, reaction time 3 h) was “not detected”, the “Decomposition efficiency of daidzin family in defatted soybean” value (pH5.4, heat treatment of enzyme: no, reaction time 6 h) was “not detected” and the “Decomposition efficiency of daidzin family in defatted soybean” value (pH5.4, heat treatment of enzyme: yes, reaction time 6 h) was “not detected”. For the same compound, the “Decomposition efficiency of daidzin family in soymilk” value (shortened to “Decomposition efficiency … in soymilk”) (pH6.2, heat treatment of enzyme: no, reaction time 0 h) was 34.9%, the “Decomposition efficiency … in soymilk” value (pH6.2, heat treatment of enzyme: no, reaction time 1 h) was “not detected” and the “Decomposition efficiency … in soymilk” value (pH6.2, heat treatment of enzyme: no, reaction time 3 h) was “not detected”. The “Decomposition efficiency … in soymilk” value (pH6.2, heat treatment of enzyme: no, reaction time 6 h) was “not detected”, the “Decomposition efficiency … in soymilk” value (pH6.2, heat treatment of enzyme: yes, reaction time 6 h) was 40.6% and the “Decomposition efficiency of daidzin family in roasted soy flour” value (pH6.5, heat treatment of enzyme no, reaction time 0 h) was 48.4. The “Decomposition efficiency of daidzin family in roasted soy flour” value (pH6.5, heat treatment of enzyme no, reaction time 1 h) was “not detected”, the “Decomposition efficiency of daidzin family in roasted soy flour” value (pH6.5, heat treatment of enzyme no, reaction time 3 h) was “not detected” and the “Decomposition efficiency of daidzin family in roasted soy flour” value (pH6.5, heat treatment of enzyme no, reaction time 6 h) was “not detected”. For the same compound, the “Decomposition efficiency of daidzin family in roasted soy flour” value (pH6.5, heat treatment of enzyme yes, reaction time 6 h) was 51.9, the “Decomposition efficiency of daidzin family in concentrated soybean protein” value [1] was 52.1% and the “Decomposition efficiency of daidzin family in defatted soybean” value [1] was 43.6%. The “Decomposition efficiency of daidzin family in concentrated soybean protein” value [2] was 5.0%, the “Decomposition efficiency of daidzin family in defatted soybean” value [2] was “not detected” and the “Decomposition efficiency of daidzin family in concentrated soybean protein” value [3] was “not detected”. For the same compound, the “Decomposition efficiency of daidzin family in defatted soybean” value [3] was “not detected”, the “Decomposition efficiency of daidzin family in concentrated soybean protein” value [4] was “not detected” and the “Decomposition efficiency of daidzin family in defatted soybean” value [4] was “not detected”. The “Decomposition efficiency of daidzin family in concentrated soybean protein” value [5] was 55.1%, the “Decomposition efficiency of daidzin family in defatted soybean” value [5] was 9.3% and the “Decomposition efficiency … in soymilk” value (pH7.2, heat treatment of enzyme: no, reaction time 0 h) was 34.9%. The “Decomposition efficiency … in soymilk” value (pH7.2, heat treatment of enzyme: no, reaction time 1 h) was “not detected”, the “Decomposition efficiency … in soymilk” value (pH7.2, heat treatment of enzyme: no, reaction time 3 h) was “not detected” and the “Decomposition efficiency … in soymilk” value (pH7.2, heat treatment of enzyme: no, reaction time 6 h) was “not detected”. For the same compound, the “Decomposition efficiency … in soymilk” value (pH7.2, heat treatment of enzyme: yes, reaction time 6 h) was 41.5%, the “Decomposition efficiency of daidzin family in defatted soybean” value (pH7.8, heat treatment of enzyme: no, reaction time 0 h) was 44.7% and the “Decomposition efficiency of daidzin family in defatted soybean” value (pH7.8, heat treatment of enzyme: no, reaction time 1 h) was 13.3%. The “Decomposition efficiency of daidzin family in defatted soybean” value (pH7.8, heat treatment of enzyme: no, reaction time 3 h) was 10.1%, the “Decomposition efficiency of daidzin family in defatted soybean” value (pH7.8, heat treatment of enzyme: no, reaction time 6 h) was 9.4% and the “Decomposition efficiency of daidzin family in defatted soybean” value (pH7.8, heat treatment of enzyme: yes, reaction time 6 h) was 41.6%. The “Decomposition efficiency of daidzin family in roasted soy flour” value (pH8.5, heat treatment of enzyme no, reaction time 0 h) was 54.1, the “Decomposition efficiency of daidzin family in roasted soy flour” value (pH8.5, heat treatment of enzyme no, reaction time 1 h) was 20.4 and the “Decomposition efficiency of daidzin family in roasted soy flour” value (pH8.5, heat treatment of enzyme no, reaction time 3 h) was 13.3. For the same compound, the “Decomposition efficiency of daidzin family in roasted soy flour” value (pH8.5, heat treatment of enzyme no, reaction time 6 h) was 10.2, the “Decomposition efficiency of daidzin family in roasted soy flour” value (pH8.5, heat treatment of enzyme yes, reaction time 6 h) was 58.8 and the “Decomposition efficiency of daidzin family in concentrated soybean protein” value (pH8.6, heat treatment of enzyme: no, reaction time 0 h) was 56.1%. The “Decomposition efficiency of daidzin family in concentrated soybean protein” value (pH8.6, heat treatment of enzyme: no, reaction time 1 h) was 50.8%, the “Decomposition efficiency of daidzin family in concentrated soybean protein” value (pH8.6, heat treatment of enzyme: no, reaction time 3 h) was 45.0% and the “Decomposition efficiency of daidzin family in concentrated soybean protein” value (pH8.6, heat treatment of enzyme: no, reaction time 6 h) was 34.5%. For the same compound, the “Decomposition efficiency of daidzin family in concentrated soybean protein” value (pH8.6, heat treatment of enzyme: yes, reaction time 6 h) was 59.1%, the “Decomposition efficiency … in soymilk” value (pH11.6, heat treatment of enzyme: no, reaction time 0 h) was 38.8% and the “Decomposition efficiency … in soymilk” value (pH11.6, heat treatment of enzyme: no, reaction time 1 h) was “not detected”. The “Decomposition efficiency … in soymilk” value (pH11.6, heat treatment of enzyme: no, reaction time 3 h) was “not detected”, the “Decomposition efficiency … in soymilk” value (pH11.6, heat treatment of enzyme: no, reaction time 6 h) was “not detected” and the “Decomposition efficiency … in soymilk” value (pH11.6, heat treatment of enzyme: yes, reaction time 6 h) was 44.6%.
